Measured values published in patent US9682960B2 (priority 2013, dated 2017).
“And” between values parts separate entries of the source, which are not always exact repeats. Identical values can stand only once.

Columns and labels:
[1] = tested on: Shionogi mouse mammary carcinoma cells; assay: In vitro androgenic/antiandrogenic activity: proliferation of Shionogi cells with or without DHT; assay type: cell-based; conditions: for IC50: Mus musculus, read-out: Shionogi Antiandrogenic Activity IC50, DHT (0.3 nM)-stimulated cell number
[2] = tested on: castrated (CX) immature male rats; assay: Systemic androgenic (agonistic) activity in orchidectomized (CX) immature male rats; assay type: in vivo, rat; conditions: for CX Agonistic activity % Stimulation Bulbo / CX Agonistic activity % Stimulation SV / CX Agonistic activity % Stimulation Prostate: 0.1 mg/rat/po, 7 days; for CX Agonistic activity % Stimulation Bulbo: bulbocavernosus muscles weight; for CX Agonistic activity % Stimulation SV: seminal vesicles weight; for CX Agonistic activity % Stimulation Prostate: ventral prostate weight
[3] = target: Human Androgen Receptor (Homo sapiens (Human), UniProt P10275); assay: Androgen receptor assay: [3H]R1881 displacement, cytosol of HEK-293 cells transfected with hAR (hydroxylapatite assay); assay type: binding; conditions: for Human Androgen Receptor Binding RBA (%) R1881 = 100: relative binding affinity
Sequence of Human Androgen Receptor (P10275 whole entry): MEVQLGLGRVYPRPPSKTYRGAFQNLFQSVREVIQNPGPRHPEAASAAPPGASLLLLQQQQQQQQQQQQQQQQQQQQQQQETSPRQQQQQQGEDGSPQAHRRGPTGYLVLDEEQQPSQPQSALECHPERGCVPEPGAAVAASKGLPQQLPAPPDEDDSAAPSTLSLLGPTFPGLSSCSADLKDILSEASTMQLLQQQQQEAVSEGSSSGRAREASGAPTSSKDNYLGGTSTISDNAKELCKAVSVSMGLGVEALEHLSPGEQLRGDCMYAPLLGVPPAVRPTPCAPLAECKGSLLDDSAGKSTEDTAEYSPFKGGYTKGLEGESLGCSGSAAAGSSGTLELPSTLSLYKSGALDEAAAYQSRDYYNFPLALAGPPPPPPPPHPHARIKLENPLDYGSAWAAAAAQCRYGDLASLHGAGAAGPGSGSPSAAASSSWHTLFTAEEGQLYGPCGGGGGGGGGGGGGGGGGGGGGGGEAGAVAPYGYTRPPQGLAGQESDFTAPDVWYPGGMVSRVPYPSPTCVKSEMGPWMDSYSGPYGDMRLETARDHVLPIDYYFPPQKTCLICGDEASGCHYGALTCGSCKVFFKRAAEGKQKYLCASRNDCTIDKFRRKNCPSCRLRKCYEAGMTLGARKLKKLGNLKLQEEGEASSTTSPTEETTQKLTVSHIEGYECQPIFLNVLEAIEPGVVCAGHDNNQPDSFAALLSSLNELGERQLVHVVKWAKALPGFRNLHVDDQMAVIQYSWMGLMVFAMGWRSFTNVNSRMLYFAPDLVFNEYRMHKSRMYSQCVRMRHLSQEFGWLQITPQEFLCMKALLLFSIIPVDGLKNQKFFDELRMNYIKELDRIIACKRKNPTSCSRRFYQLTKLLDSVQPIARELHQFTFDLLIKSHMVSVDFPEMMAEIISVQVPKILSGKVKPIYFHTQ

[4] = tested on: Androgen Receptor; assay: Overall classification (antiandrogen / SARM) in the models studied
[5] = tested on: intact immature male rats; assay: Activity in intact immature male rats; assay type: in vivo, rat
Method: Immature male rats (Crl:CD(SD)Br) 22 to 24-day old weighting 60-80 g at start of treatment were obtained from Charles-River, Inc. (St-Constant, Quebec, Canada) and housed up to 5 per cage in plastic bins in a temperature (23±1° C.)- and light (12 h light/day, lights on at 7 h15)-controlled environment. The rats were fed rodent chow and tap water ad libitum. […] The day following their arrival, the designed animals were orchidectomized (CX) under Isoflurane anesthesia (Study Day 1) via the scrotal route and were then randomly assigned to groups of 3 to 5 animals. At the time of orchidectomy, one silastic implant of dihydrotestosterone (DHT; 1 cm length of pure DHT in silastic tubing having inner and outer diameter of 0.078 and 0.125 inches, respectively), was inserted subcutaneously in the dorsal area of animals assigned to the evaluation of antiandrogenic activity. In the case of intact animal experiments, the orchidectomy and the silastic implant installation are omitted.
Tested compounds were administered orally once daily for 7 days from Study Day 2 to Study Day 8 at doses generally ranging from 0.1 and 0.5 mg/animal. Compounds were either solubilized in dimethylsulfoxide (DMSO, 10% final concentration) and were administered as a solution/suspension in 0.9% NaCl-1% gelatin or were administered as suspensions in 0.4% aqueous methylcellulose. Animals of the control groups received the corresponding vehicle alone during the 7-day period. Some animals were treated with the antiandrogen Flutamide or Casodex as reference. The animals under isoflurane anesthesia were killed by cervical dislocation on day 9 of the study, approximately 24 h after the last dosing. The ventral prostate, seminal vesicles and bulbocavernosus muscles were rapidly dissected and weighed.
For calculations with intact animals, control DHT is replaced by control intact and the % stimulation is subtracted by 100%. W is the weight of the prostate, seminal vesicles or bulbocavernosus muscles. Discussion

[6] = Oral absorption, Experiment 1: plasma levels after single oral 20 mg EM-9150/kg in intact male rats (LC-MS/MS); assay type: in vivo, rat; conditions: metabolite after oral EM-9150
Method: Intact 6 week-old male rats (Crl:CD(SD)) weighing 150-205 g were obtained from Charles-River Canada Inc. (St-Constant, Quebec, Canada) and housed up to 3 per cage in plastic bins in a temperature (19° C. to 25° C.)- and light (12 h light/day)-controlled environment. They were acclimatized to laboratory conditions for 2 weeks prior to the pharmacokinetic (PK) study. The rats were fed rodent chow (PMI Nutrition International Certified Rodent Chow No. 5CR4 (14% protein)) and tap water ad libitum. Animals were weighing 165-200 g at the time of dosing.
Blood samples (˜0.4 mL/timepoint/rat) were collected by jugular venipuncture at 0.5, 1, 2, 3.5, 7 and 24 h post-dosing from 3 animals/timepoint. Blood samples were put into tubes containing EDTA(K3) as anticoagulant and centrifuged at 4° C. for 10 min at 2700 rpm. The resulting plasma was separated and transferred to 2 polypropylene tubes, frozen immediately over dry ice and kept in a freezer set to maintain −80° C. until analysis.

[7] = tested on: castrated (CX) immature male rats; assay: Systemic androgenic (agonistic) activity in orchidectomized (CX) immature male rats; assay type: in vivo; conditions: 0.1 mg/rat, s.c. (subcutaneous)
[8] = immature castrated rat, oral 7 days

Compound | IC50 [1] | % of stimulation at 10^−7M on basal Shionogi cells ([1]; basal (no DHT), 10^−7M) | CX Agonistic activity % Stimulation Bulbo [2] | CX Agonistic activity % Stimulation SV [2] | CX Agonistic activity % Stimulation Prostate [2] | activity on the bulbocavernosus muscles (in words) [2, 8] | activity on the prostate and seminal vesicles (in words) [2, 8] | Human Androgen Receptor Binding RBA (%) R1881 = 100 [3] | times more potent than OH-flutamide on the human AR (RBA ratio) ([3]; versus hydroxyflutamide) | classification as antiandrogen or SARM (in words) [4] | activity on the bulbocavernosus muscles (in words) ([5]; immature intact rat) | activity on the prostate and seminal vesicles (in words) ([5]; immature intact rat) | inhibition of intact rat prostate ([5]; intact immature rat, 7 days) | inhibition of intact rat seminal vesicles ([5]; intact immature rat, 7 days) | stimulation of the bulbocavernosus muscles in intact rat ([5]; intact immature rat, 7 days) | share of the plasma exposure of EM-9150 [6] | CX Agonistic activity % Stimulation Bulbo [7] | CX Agonistic activity % Stimulation Prostate [7]
Cc1c(N2C(=O)N(CCCOc3ccc(-c4ccncc4)cc3Cl)C(C)(C)C2=O)ccc(C#N)c1Cl [EM-9251] | 67.7 nM | 38% | 119±24% and 119 ± 24 (n = 2) % | 27 ± 1 (n = 2) % | 41 ± 2 (n = 2) % | agonistic activity | mixed agonistic-antagonistic activity | 253% | 1200 times | selective androgen receptor modulators | agonistic activity | antagonistic activity | 25±4% | 35±7% | 77±6% |  |  | 
CC1(C)NC(=O)N(c2ccc(C#N)c(Cl)c2)C1=O [EM-9260] | ~100 nM |  | 4% | 2% | 0% |  |  | ~0.1% |  | antiandrogens |  |  |  |  |  | approximately 90% |  | 
C[C@]12CC[C@H]3[C@@H](CCC4=CC(=O)CC[C@@]43C)[C@@H]1CC[C@@H]2O [Testosterone] |  |  |  |  |  |  |  |  |  |  |  |  |  |  |  |  | 171% | 99%
